Article PMC12306736 (PLOS Genetics, 2025)
Read-outs that look alike come from different tables or passages of the source.

Experiments:
B. ovis [1] = experiment: microbe, parasite or virus in culture; type: cell-based, Brucella ovis; conditions: for IC50: Brucella ovis
B. ovis [2] = experiment: microbe, parasite or virus in culture; type: cell-based, Brucella ovis; conditions: for IC50: Brucella ovis; remark: listed apart in the source
THP-1 cells = conditions: human
B. ovis [3] = type: cell-based, Brucella ovis
B. abortus [4] = type: cell-based, Brucella abortus
B. abortus [5] = experiment: microbe, parasite or virus in culture; type: cell-based; conditions: Brucella abortus, THP-1, 48 h, read-out: IC50, intracellular B. abortus in THP-1 cells
B. abortus [6] = type: cell-based, Brucella abortus; remark: listed apart in the source
B. ovis [7] = type: cell-based, Brucella ovis; remark: listed apart in the source
B. abortus [8] = type: cell-based, Brucella abortus; remark: listed apart in the source
B. ovis [9] = type: cell-based, Brucella ovis; remark: listed apart in the source
[10] = system: THP-1 macrophage-like cells; type: cell-based, human
B. abortus [11] = type: cell-based
B. ovis [12] = type: cell-based, Brucella ovis; remark: listed apart in the source
[13] = THP-1, read-out: Intracellular IC50
[14] = THP-1, 48 h, read-out: IC50 for inhibiting intracellular growth of B. ovis
[15] = 48 h, read-out: Axenic B. ovis IC50 (Fig 1B)

Structure (SMILES): N[C@@H]1C[C@H]1c1ccccc1 (racemic) [Tranylcypromine]
- IC50 (B. ovis [1]; [13]): > 50 µM
- IC50 (B. ovis [2]; read-out: Axenic IC50): > 50 µM
- CC50 (THP-1 cells): > 50 µM

Structure (SMILES): O=C1CCc2ccc(OCCCCN3CCN(c4cccc(Cl)c4Cl)CC3)cc2N1 [Aripiprazole]
- CC50 (THP-1 cells): 12 µM

Structure (SMILES): c1ccc(-c2ccc(C(c3ccccc3)n3ccnc3)cc2)cc1 (stereo not drawn) [Bifonazole]
- Outcome of validation assays (B. ovis [1]): inhibitors of intracellular replication that were not toxic to host cells
- IC50 (B. ovis [1]; [13]): 14 µM
- IC50 (B. ovis [2]; read-out: Axenic IC50): 4 µM
- CC50 (THP-1 cells): > 50 µM

Structure (SMILES): C[C@H](CCC(=O)NCCC[N+](C)(C)CCCS(=O)(=O)[O-])[C@H]1CC[C@H]2[C@@H]3[C@H](O)C[C@@H]4C[C@H](O)CC[C@]4(C)[C@H]3C[C@H](O)[C@]12C [CHAPS]
- Sensitivity of wild-type B. ovis on TSA blood plates (B. ovis [3]): highly sensitive
- Effect of bepE disruption on B. abortus sensitivity on solid media (B. abortus [4]): did not affect sensitivity

Structure (SMILES): COCCOC(=O)C1=C(C)NC(C)=C(C(=O)OC/C=C/c2ccccc2)C1c1cccc([N+](=O)[O-])c1 (stereo not drawn) [Cilnidipine]
- Outcome of validation assays (B. ovis [1]): inhibitors of intracellular replication that were not toxic to host cells
- IC50 (B. ovis [1]; [14]): 2.5 µM
- IC50 (B. ovis [1]; [13]): 2 µM
- Concentrations giving complete growth inhibition of axenic B. ovis (B. ovis [2]): ≥ 10 µM
- IC50 (B. ovis [2]; [15]): 5.09 µM
- IC50 (B. ovis [2]; 48 h, read-out: Axenic IC50, B. ovis): ~5 µM
- IC50 (B. ovis [2]; read-out: Axenic IC50): 5 µM
- IC50 (B. abortus [5]): 13.5 µM
- Sensitivity of WT B. abortus in axenic conditions (B. abortus [6]): insensitive
- Sensitivity of ∆bepE B. abortus in axenic conditions (B. abortus [6]): insensitive
- Growth of WT B. ovis in liquid culture (B. ovis [7]): failed to grow over 72 h
- Effect of bepE disruption on B. abortus sensitivity on solid media (B. abortus [4]): did not affect sensitivity
- Effect of bepE deletion on B. abortus sensitivity in THP-1 cells (B. abortus [8]): increase sensitivity
- Axenic inhibition in high-throughput screen (B. ovis [9]): < 35%
- CC50 (THP-1 cells): > 50 µM
- THP-1 host cell viability (THP-1 cells): does not affect THP-1 host cell viability

Structure (SMILES): OCCN(CCO)c1nc(N2CCCCC2)c2nc(N(CCO)CCO)nc(N3CCCCC3)c2n1 [Dipyridamole]
- IC50 (B. ovis [1]; [13]): > 50 µM
- IC50 (B. ovis [2]; read-out: Axenic IC50): > 50 µM
- CC50 (THP-1 cells): 41 µM

Structure (SMILES): CCCCN(CCCC)CCC(O)c1cc2c(Cl)cc(Cl)cc2c2cc(C(F)(F)F)ccc12 (stereo not drawn) [Halofantrine]
- IC50 (B. ovis [1]; [13]): > 50 µM
- IC50 (B. ovis [2]; read-out: Axenic IC50): 11 µM
- CC50 (THP-1 cells): > 50 µM

Structure (SMILES): COc1ccc(CN2CCN(C(c3ccc(F)cc3)c3ccc(F)cc3)CC2)c(OC)c1OC [Lomerizine]
- Outcome of validation assays (B. ovis [1]): inhibitors of intracellular replication that were not toxic to host cells
- IC50 (B. ovis [1]; [13]): 9 µM
- IC50 (B. ovis [2]; read-out: Axenic IC50): > 50 µM
- CC50 (THP-1 cells): 50 µM

Structure (SMILES): COC(=O)C1=C(C)NC(C)=C(C(=O)OCCN(C)Cc2ccccc2)C1c1cccc([N+](=O)[O-])c1 (stereo not drawn) [Nicardipine]
- Outcome of validation assays (B. ovis [1]): inhibitors of intracellular replication that were not toxic to host cells
- IC50 (B. ovis [1]; [14]): 2.3 µM
- IC50 (B. ovis [1]; [13]): 2 µM
- Effect on terminal optical density of axenic B. ovis (B. ovis [2]): no effect on the terminal optical density at any concentration tested
- IC50 (B. ovis [2]; [15]): > 25 µM
- IC50 (B. ovis [2]; read-out: Axenic IC50): > 50 µM
- IC50 (B. abortus [5]): 4.4 µM
- Sensitivity of WT B. abortus in axenic conditions (B. abortus [6]): insensitive
- Sensitivity of ∆bepE B. abortus in axenic conditions (B. abortus [6]): insensitive
- Increase in intracellular calcium level [10]: 20–40%
- Increase in intracellular manganese level [10]: 20–40%
- Other metal levels in THP-1 cells [10]: Most metal levels remained unchanged
- Growth of WT B. ovis in liquid culture (B. ovis [7]): modest lag
- Effect of bepE disruption on B. abortus sensitivity on solid media (B. abortus [4]): did not affect sensitivity
- Effect of bepE deletion on B. abortus sensitivity in THP-1 cells (B. abortus [8]): did not alter sensitivity
- Wild-type B. abortus CFUs recovered from treated THP-1 cells compared to untreated controls (B. abortus [8]): significantly fewer
- CC50 (THP-1 cells): 49 µM
- THP-1 host cell viability (THP-1 cells): does not affect THP-1 host cell viability

Structure (SMILES): CC1(C)S[C@@H]2[C@H](NC(=O)Cc3ccccc3)C(=O)N2[C@H]1C(=O)O [Penicillin G]
- Increase in susceptibility of B. abortus on deletion of bepE (spot-titration on agar) (B. abortus [4]): approximately five
- Differential growth of B. abortus WT and ΔbepE in Biolog phenotype microarray (B. abortus [11]): markedly inhibiting ΔbepE but not WT growth

Structure (SMILES): CCOc1ccc(NC(C)=O)cc1 [Phenacetin]
- IC50 (B. ovis [1]; [13]): > 50 µM
- IC50 (B. ovis [2]; read-out: Axenic IC50): > 50 µM
- CC50 (THP-1 cells): > 50 µM

Structure (SMILES): CC(=O)SCC(Cc1ccccc1)C(=O)NCC(=O)OCc1ccccc1 (stereo not drawn) [Racecadotril]
- IC50 (B. ovis [1]; [13]): > 50 µM
- IC50 (B. ovis [2]; read-out: Axenic IC50): > 50 µM
- CC50 (THP-1 cells): > 50 µM

Structure (SMILES): CCCCCCCCCCCCOS(=O)(=O)[O-].[Na+] [SDS, sodium dodecyl sulfate]
- Sensitivity of wild-type B. ovis on TSA blood plates (B. ovis [3]): highly sensitive

Structure (SMILES): CC1(C)S[C@@H]2[C@H](NC(=O)C(C(=O)O)c3ccccc3)C(=O)N2[C@H]1C(=O)O (stereo partly drawn) [carbenicillin]
- Sensitivity of wild-type B. ovis on TSA blood plates (B. ovis [3]): moderately sensitive

Structure (SMILES): COC(=O)C1=C(C)NC(C)=C(C(=O)OC)C1c1ccccc1[N+](=O)[O-] [nifedipine]
- Hit status in B. ovis intracellular screen (B. ovis [12]): neither compound emerged as a hit

Structure (SMILES): COc1ccc(CCN(C)CCCC(C#N)(c2ccc(OC)c(OC)c2)C(C)C)cc1OC (stereo not drawn) [verapamil]
- Hit status in B. ovis intracellular screen (B. ovis [12]): neither compound emerged as a hit
